Measured values reported in publication PMC8005375, “Massiliamide, a cyclic tetrapeptide with potent tyrosinase inhibitory properties from the Gram-negative bacterium Massilia albidiflava DSM 17472^T” (The Journal of Antibiotics, 2020).
Square brackets hold non-standard residues; d marks the D form. Peptide text beside a SMILES is read from it.

Tests used:
A. baumannii 09987 = conditions: cation-adjusted Mueller-Hinton medium, twofold serial dilution (CLSI), 5 × 10^5 CFU per mL, overnight, 37°C
Method: (§1) The minimal inhibitory concentration (MIC) was determined in a cation-adjusted Mueller-Hinton medium that contains casein, beef extract and starch by using a twofold serial dilution method according to the standards and guidelines of the Clinical and Laboratory Standards Institute (CLSI). In brief, a twofold serial dilution of the test compound was prepared in microtiter plates and seeded using a final inoculum of bacteria of 5 × 10^5 colony-forming units per mL. […] The strain panel included representative species of nosocomial pathogens, which are known as “ESKAPE” bacteria. Specifically, the following strains were used: Enterococcus faecium BM 4147–1, Staphylococcus aureus ATCC 29213, Klebsiella pneumoniae ATCC 12657, Acinetobacter baumannii 09987, Pseudomonas aeruginosa ATCC 27853 and Enterobacter aerogenes ATCC 13048. Bacillus subtilis 168 and Escherichia coli ATCC 25922 were used as further reference strains. The ATCC strains were provided by the American Type Culture Collection. A. baumannii 09987 was obtained from the University of Bonn, Germany.

B. subtilis 168 = conditions: cation-adjusted Mueller-Hinton medium, twofold serial dilution (CLSI), 5 × 10^5 CFU per mL, overnight, 37°C
Method: as §1

E. aerogenes ATCC 13048 = conditions: cation-adjusted Mueller-Hinton medium, twofold serial dilution (CLSI), 5 × 10^5 CFU per mL, overnight, 37°C
Method: as §1

E. coli ATCC 25922 = conditions: cation-adjusted Mueller-Hinton medium, twofold serial dilution (CLSI), 5 × 10^5 CFU per mL, overnight, 37°C
Method: as §1

E. faecium BM 4147-1 = conditions: cation-adjusted Mueller-Hinton medium, twofold serial dilution (CLSI), 5 × 10^5 CFU per mL, overnight, 37°C
Method: as §1

K. pneumonia ATCC 12657 = conditions: cation-adjusted Mueller-Hinton medium, twofold serial dilution (CLSI), 5 × 10^5 CFU per mL, overnight, 37°C
Method: as §1

P. aeruginosa ATCC 27853 = conditions: cation-adjusted Mueller-Hinton medium, twofold serial dilution (CLSI), 5 × 10^5 CFU per mL, overnight, 37°C
Method: as §1

[1] = test system: strain panel of "ESKAPE" bacteria, Bacillus subtilis 168 and Escherichia coli ATCC 25922; conditions: broth microdilution, up to the highest concentration tested (64 µg ml^−1)
Method: as §1

HeLa cell line = HeLa cell line at 64 µg ml^−1; resazurin assay
Method: The cytotoxicity test against the HeLa human cervical carcinoma cell line was performed in RPMI cell culture medium supplemented with 10% fetal bovine serum using the 7-hydroxy-3H-phenoxazin-3-one-10-oxide (resazurin) assay. A twofold serial dilution of the test compounds was prepared in duplicates in a microtiter plate and seeded with trypsinized HeLa cells to a final cell concentration of 1 × 10^4 cells per well. After 24 h incubation at 37°C, 5 % CO2, 95% relative humidity, resazurin was added at a final concentration of 200 µM, and cells were again incubated overnight. Cell viability was assessed by determining the reduction of resazurin to the fluorescent resorufin. Fluorescence was measured in a TECAN M200 reader at an excitation wavelength of 560 nm and an emission wavelength of 600 nm in relation to the untreated control.

tyrosinase = tyrosinase (Agaricus bisporus, UniProt C7FF04); assay: Tyrosinase inhibition assay (kit MAK257); assay type: biochemical; conditions: comparison of IC50 values with arbutin and kojic acid
Chain of tyrosinase (C7FF04 whole entry): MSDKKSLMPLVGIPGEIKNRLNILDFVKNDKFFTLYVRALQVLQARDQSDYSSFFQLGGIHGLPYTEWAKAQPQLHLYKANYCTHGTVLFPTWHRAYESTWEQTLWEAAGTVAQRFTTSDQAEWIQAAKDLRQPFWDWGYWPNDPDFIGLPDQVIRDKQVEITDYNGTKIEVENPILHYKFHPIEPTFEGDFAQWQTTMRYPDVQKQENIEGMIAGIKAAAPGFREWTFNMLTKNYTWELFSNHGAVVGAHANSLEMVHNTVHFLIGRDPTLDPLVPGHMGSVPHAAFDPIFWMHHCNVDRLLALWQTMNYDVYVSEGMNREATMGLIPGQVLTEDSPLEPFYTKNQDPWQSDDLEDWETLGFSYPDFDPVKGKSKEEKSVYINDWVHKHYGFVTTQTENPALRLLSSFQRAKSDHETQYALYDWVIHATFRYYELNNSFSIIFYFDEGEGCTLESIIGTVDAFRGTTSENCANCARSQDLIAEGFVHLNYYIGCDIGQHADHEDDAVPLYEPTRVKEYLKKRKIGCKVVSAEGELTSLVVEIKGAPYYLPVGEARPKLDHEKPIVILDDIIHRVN
Method: In brief, 20 µL massiliamide (1) with various concentrations (0.05–5 µM) was added into 50 µL tyrosinase enzyme solutions that contained 48 µL MAK257A buffer and 2 µL of tyrosinase. The mixture was then incubated for 10 min at 25°C, followed by the addition of 30 µL substrate solution, containing 23 µL MAK257A buffer, 2 µL tyrosinase substrate, and 5 µL tyrosinase enhancer. The final reaction mixture was then homogenized by shaking and immediately monitored at 510 nm using a Tecan Infinite 200 Pro microplate reader, applying the kinetic mode for 30-60 min. […] Each measurement was conducted in three independent replications.

S. aureus ATCC 2921 = conditions: cation-adjusted Mueller-Hinton medium, twofold serial dilution (CLSI), 5 × 10^5 CFU per mL, overnight, 37°C
Method: The minimal inhibitory concentration (MIC) was determined in a cation-adjusted Mueller-Hinton medium that contains casein, beef extract and starch by using a twofold serial dilution method according to the standards and guidelines of the Clinical and Laboratory Standards Institute (CLSI) [10]. In brief, a twofold serial dilution of the test compound was prepared in microtiter plates and seeded using a final inoculum of bacteria of 5 × 10^5 colony-forming units per mL.

Structure (SMILES): CC(C)[C@H]1NC(=O)[C@@H]2CCCN2C(=O)[C@@H](Cc2ccc(O)cc2)NC(=O)[C@@H]2CCCN2C1=O [Massiliamide (1)] (cyclo(P[dY]P[dV]))
- MIC (A. baumannii 09987): > 64 µg/mL
- MIC (B. subtilis 168): > 64 µg/mL
- MIC (E. aerogenes ATCC 13048): > 64 µg/mL
- MIC (E. coli ATCC 25922): > 64 µg/mL
- MIC (E. faecium BM 4147-1): > 64 µg/mL
- MIC (K. pneumonia ATCC 12657): > 64 µg/mL
- MIC (P. aeruginosa ATCC 27853): > 64 µg/mL
- Antimicrobial activity (in words) [1]: inactive up to the highest concentration tested
- Cytotoxicity (in words) (HeLa cell line): no cytotoxicity
- Tyrosinase inhibition compared with positive controls (in words) (tyrosinase): surpassed readily the activities of the positive controls arbutin and kojic acid
- MIC (S. aureus ATCC 2921): > 64 µg/mL
